In the OligoGym collection:
HELM strings list units from the 5' end as sugar, base in round brackets, then linkage (d deoxyribose, r ribose, m 2'-O-methyl, p phosphodiester). Strings are as the collection lists them; they lack the last nucleoside at the 3' end of the tested compound. [moe] = 2'-O-(2-methoxyethyl) (MOE); [sp] = phosphorothioate linkage; [m5C] = 5-methylcytosine

Target: PRNP
Assay: mouse, dose not given
Settings: ASO

RNA1{[moe](T)[sp].[moe]([m5C])p.[moe](T)p.[moe](T)p.[moe](A)[sp].d(G)[sp].d(A)[sp].d(T)[sp].d(T)[sp].d(T)[sp].d(T)[sp].d(T)[sp].d(G)[sp].d(G)[sp].d(A)[sp].[moe]([m5C])p.[moe](G)p.[moe](G)[sp].[moe](G)}$$$$ (last 3' nucleoside missing)
3 h FOB score: 4.5 score 0-7

RNA1{[moe](T)[sp].[moe]([m5C])p.[moe](T)p.[moe](T)p.[moe](T)[sp].d(T)[sp].d([m5C])[sp].d(T)[sp].d(T)[sp].d(T)[sp].d(G)[sp].d([m5C])[sp].d(A)[sp].d([m5C])[sp].d(A)[sp].[moe]([m5C])p.[moe](T)p.[moe](G)[sp].[moe](A)}$$$$ (last 3' nucleoside missing)
3 h FOB score: 3 score 0-7

RNA1{[moe](T)[sp].[moe]([m5C])p.[moe](T)p.[moe]([m5C])p.[moe](A)[sp].d(G)[sp].d(G)[sp].d(T)[sp].d([m5C])[sp].d(T)[sp].d(A)[sp].d([m5C])[sp].d(T)[sp].d([m5C])[sp].d(T)[sp].[moe](A)p.[moe](T)p.[moe](G)[sp].[moe](T)}$$$$ (last 3' nucleoside missing)
3 h FOB score: 1.25 score 0-7

RNA1{[moe](T)[sp].[moe]([m5C])p.[moe](T)p.[moe]([m5C])p.[moe]([m5C])[sp].d(T)[sp].d(T)[sp].d(G)[sp].d(A)[sp].d(A)[sp].d(T)[sp].d(T)[sp].d(T)[sp].d([m5C])[sp].d(T)[sp].[moe](T)p.[moe](T)p.[moe]([m5C])[sp].[moe](A)}$$$$ (last 3' nucleoside missing)
3 h FOB score: 0 score 0-7

RNA1{[moe](T)[sp].[moe]([m5C])p.[moe]([m5C])p.[moe](A)p.[moe](T)[sp].d(T)[sp].d(T)[sp].d(T)[sp].d([m5C])[sp].d(T)[sp].d(G)[sp].d(T)[sp].d(G)[sp].d([m5C])[sp].d(T)[sp].[moe](T)p.[moe](T)p.[moe](T)[sp].[moe]([m5C])}$$$$ (last 3' nucleoside missing)
3 h FOB score: 3.75 score 0-7

RNA1{[moe]([m5C])[sp].[moe](A)p.[moe](A)p.[moe](G)p.[moe]([m5C])[sp].d(A)[sp].d(G)[sp].d(T)[sp].d(T)[sp].d([m5C])[sp].d(T)[sp].d(T)[sp].d(T)[sp].d(T)[sp].d([m5C])[sp].[moe](T)p.[moe](T)p.[moe](T)[sp].[moe](G)}$$$$ (last 3' nucleoside missing)
3 h FOB score: 2.25 score 0-7

RNA1{[moe]([m5C])[sp].[moe](A)p.[moe](A)p.[moe](T)p.[moe](T)[sp].d(G)[sp].d(T)[sp].d(T)[sp].d(T)[sp].d(T)[sp].d(T)[sp].d([m5C])[sp].d(T)[sp].d([m5C])[sp].d(T)[sp].[moe]([m5C])p.[moe](T)p.[moe]([m5C])[sp].[moe](T)}$$$$ (last 3' nucleoside missing)
3 h FOB score: 0 score 0-7

RNA1{[moe]([m5C])[sp].[moe](A)p.[moe](G)p.[moe](G)p.[moe](G)[sp].d(A)[sp].d(A)[sp].d(T)[sp].d(A)[sp].d(A)[sp].d(T)[sp].d(T)[sp].d(T)[sp].d(T)[sp].d(A)[sp].[moe]([m5C])p.[moe](T)p.[moe](T)[sp].[moe](T)}$$$$ (last 3' nucleoside missing)
3 h FOB score: 0 score 0-7

RNA1{[moe]([m5C])[sp].[moe](A)p.[moe](G)p.[moe](T)p.[moe](G)[sp].d(T)[sp].d(T)[sp].d([m5C])[sp].d([m5C])[sp].d(A)[sp].d(T)[sp].d([m5C])[sp].d([m5C])[sp].d(T)[sp].d([m5C])[sp].[moe]([m5C])p.[moe](A)p.[moe](G)[sp].[moe](G)}$$$$ (last 3' nucleoside missing)
3 h FOB score: 1 score 0-7

RNA1{[moe]([m5C])[sp].[moe](A)p.[moe](G)p.[moe](T)p.[moe](T)[sp].d(T)[sp].d(T)[sp].d(T)[sp].d([m5C])[sp].d([m5C])[sp].d([m5C])[sp].d([m5C])[sp].d(A)[sp].[moe]([m5C])p.[moe](A)p.[moe](T)[sp].[moe](A)}$$$$ (last 3' nucleoside missing)
3 h FOB score: 0 score 0-7

RNA1{[moe]([m5C])[sp].[moe](A)p.[moe](T)p.[moe](T)p.[moe](T)[sp].d(G)[sp].d(A)[sp].d(T)[sp].d(T)[sp].d(T)[sp].d([m5C])[sp].d(A)[sp].d(A)[sp].d(G)[sp].d(T)[sp].[moe]([m5C])p.[moe]([m5C])p.[moe]([m5C])[sp].[moe](A)}$$$$ (last 3' nucleoside missing)
3 h FOB score: 3 score 0-7

RNA1{[moe]([m5C])[sp].[moe](A)p.[moe]([m5C])p.[moe](A)p.[moe]([m5C])p.d(T)[sp].d(G)[sp].d(A)[sp].d([m5C])[sp].d([m5C])[sp].d(A)[sp].d(T)[sp].d(T)[sp].d(T)[sp].[moe](T)p.[moe](T)p.[moe](T)[sp].[moe](A)}$$$$ (last 3' nucleoside missing)
3 h FOB score: 0 score 0-7

RNA1{[moe]([m5C])[sp].[moe](G)[sp].[moe](T)p.[moe]([m5C])p.[moe]([m5C])p.[moe](A)p.[moe](T)p.d(T)[sp].d(T)[sp].d(T)[sp].d([m5C])[sp].d(T)[sp].d(G)[sp].d(T)[sp].d(G)[sp].d([m5C])[sp].d(T)[sp].[moe](T)p.[moe](T)}$$$$ (last 3' nucleoside missing)
3 h FOB score: 5.5 score 0-7

RNA1{[moe]([m5C])[sp].[moe](G)p.[moe](G)p.[moe](G)p.[moe](T)[sp].d(T)[sp].d(T)[sp].d(T)[sp].d([m5C])[sp].d(T)[sp].d(T)[sp].d(A)[sp].d(A)[sp].d(A)[sp].d(A)[sp].[moe](T)p.[moe](G)p.[moe](G)[sp].[moe](A)}$$$$ (last 3' nucleoside missing)
3 h FOB score: 2 score 0-7

RNA1{[moe]([m5C])[sp].[moe](G)p.[moe](T)p.[moe](T)p.[moe](G)[sp].d(T)[sp].d(T)[sp].d(G)[sp].d(A)[sp].d(T)[sp].d(T)[sp].d(T)[sp].d(T)[sp].d(T)[sp].d([m5C])[sp].[moe]([m5C])p.[moe](A)p.[moe](G)[sp].[moe](A)}$$$$ (last 3' nucleoside missing)
3 h FOB score: 1.75 score 0-7

RNA1{[moe]([m5C])[sp].[moe](G)p.[moe](T)p.[moe](T)p.[moe]([m5C])[sp].d(A)[sp].d(T)[sp].d([m5C])[sp].d(T)[sp].d(T)[sp].d(A)[sp].d(T)[sp].d(T)[sp].d([m5C])[sp].d([m5C])[sp].[moe]([m5C])p.[moe](A)p.[moe](T)[sp].[moe](T)}$$$$ (last 3' nucleoside missing)
3 h FOB score: 1 score 0-7

RNA1{[moe]([m5C])[sp].[moe](G)p.[moe](T)p.[moe]([m5C])p.[moe]([m5C])p.[moe](A)p.d(T)[sp].d(T)[sp].d(T)[sp].d(T)[sp].d([m5C])[sp].d(T)[sp].d(G)[sp].d(T)[sp].d(G)[sp].d([m5C])[sp].[moe](T)p.[moe](T)[sp].[moe](T)}$$$$ (last 3' nucleoside missing)
3 h FOB score: 6.25 score 0-7

RNA1{[moe]([m5C])[sp].[moe](G)p.[moe](T)p.[moe]([m5C])p.d([m5C])[sp].d(A)[sp].d(T)[sp].d(T)[sp].d(T)[sp].d(T)[sp].d([m5C])[sp].d(T)[sp].d(G)[sp].d(T)[sp].[moe](G)p.[moe]([m5C])p.[moe](T)p.[moe](T)[sp].[moe](T)}$$$$ (last 3' nucleoside missing)
3 h FOB score: 3 score 0-7

RNA1{[moe]([m5C])[sp].[moe](G)p.[moe](T)p.d([m5C])[sp].d([m5C])[sp].d(A)[sp].d(T)[sp].d(T)[sp].d(T)[sp].d(T)[sp].d([m5C])[sp].d(T)[sp].d(G)[sp].[moe](T)p.[moe](G)p.[moe]([m5C])p.[moe](T)p.[moe](T)[sp].[moe](T)}$$$$ (last 3' nucleoside missing)
3 h FOB score: 0 score 0-7

RNA1{[moe]([m5C])[sp].[moe](T)[sp].[moe](A)p.[moe](T)p.[moe](G)p.[moe](T)p.[moe](T)p.d(T)[sp].d(T)[sp].d([m5C])[sp].d([m5C])[sp].d(A)[sp].d(G)[sp].d(T)[sp].d(G)[sp].d([m5C])[sp].d([m5C])[sp].[moe]([m5C])p.[moe](A)}$$$$ (last 3' nucleoside missing)
3 h FOB score: 4.75 score 0-7

RNA1{[moe]([m5C])[sp].[moe](T)[sp].[moe]([m5C])p.[moe](T)p.[moe](A)p.[moe](T)p.[moe](G)p.d(T)[sp].d(T)[sp].d(T)[sp].d(T)[sp].d([m5C])[sp].d([m5C])[sp].d(A)[sp].d(G)[sp].d(T)[sp].d(G)[sp].[moe]([m5C])p.[moe]([m5C])}$$$$ (last 3' nucleoside missing)
3 h FOB score: 6 score 0-7

RNA1{[moe]([m5C])[sp].[moe](T)p.[moe](A)p.[moe](G)p.[moe](T)[sp].d(A)[sp].d(A)[sp].d(G)[sp].d(A)[sp].d(A)[sp].d([m5C])[sp].d(T)[sp].d(T)[sp].d(A)[sp].d(T)[sp].[moe]([m5C])p.[moe]([m5C])p.[moe]([m5C])[sp].[moe](A)}$$$$ (last 3' nucleoside missing)
3 h FOB score: 0 score 0-7

RNA1{[moe]([m5C])[sp].[moe](T)p.[moe](A)p.[moe](T)p.[moe](G)[sp].d(A)[sp].d(T)[sp].d(G)[sp].d(A)[sp].d(T)[sp].d(G)[sp].d(G)[sp].d(T)[sp].d(G)[sp].d([m5C])[sp].[moe](T)p.[moe](T)p.[moe](T)[sp].[moe]([m5C])}$$$$ (last 3' nucleoside missing)
3 h FOB score: 6 score 0-7

RNA1{[moe]([m5C])[sp].[moe](T)p.[moe](A)p.[moe](T)p.[moe](G)[sp].d(T)[sp].d(T)[sp].d(T)[sp].d(T)[sp].d([m5C])[sp].d([m5C])[sp].d(A)[sp].d(G)[sp].[moe](T)p.[moe](G)p.[moe]([m5C])[sp].[moe]([m5C])}$$$$ (last 3' nucleoside missing)
3 h FOB score: 0 score 0-7

RNA1{[moe]([m5C])[sp].[moe](T)p.[moe](A)p.[moe](T)p.[moe](G)[sp].d(T)[sp].d(T)[sp].d(T)[sp].d(T)[sp].d([m5C])[sp].d([m5C])[sp].d(A)[sp].d(G)[sp].d(T)[sp].d(G)[sp].[moe]([m5C])p.[moe]([m5C])p.[moe]([m5C])[sp].[moe](A)}$$$$ (last 3' nucleoside missing)
3 h FOB score: 3 score 0-7

RNA1{[moe]([m5C])[sp].[moe](T)p.[moe](A)p.[moe](T)p.[moe](G)p.[moe](T)p.d(T)[sp].d(T)[sp].d(T)[sp].d([m5C])[sp].d([m5C])[sp].d(A)[sp].d(G)[sp].d(T)[sp].d(G)[sp].d([m5C])[sp].[moe]([m5C])p.[moe]([m5C])[sp].[moe](A)}$$$$ (last 3' nucleoside missing)
3 h FOB score: 3.75 score 0-7
